The test system of assay [1] is Dirofilaria immitis third-stage larvae. Put plainly: In Vitro Assay 3: Dirofilaria immitis (DIROIM L4) larval motility. To be noted: 72 h.
The next assay concerns the target C. elegans Slo-1a (Caenorhabditis elegans, UniProt Q95V25).
Assay [2] has as its system Dirofilaria immitis microfilariae. Put plainly: In Vitro Assay 2: Dirofilaria immitis microfilariae (DIROIM L1) motility. Conditions: 72 h.

The source of these data is patent publication US11254661B2, “Quinoline derivatives for treating infections with helminths” (Bayer Animal Health GMBH, priority 2017, dated 2022).

Structures are written as SMILES.

As a reminder, the EC50 is the concentration that produces a half-maximal response. Read a high EC50 as weaker potency.

Sequence of C. elegans Slo-1a (Q95V25 whole entry): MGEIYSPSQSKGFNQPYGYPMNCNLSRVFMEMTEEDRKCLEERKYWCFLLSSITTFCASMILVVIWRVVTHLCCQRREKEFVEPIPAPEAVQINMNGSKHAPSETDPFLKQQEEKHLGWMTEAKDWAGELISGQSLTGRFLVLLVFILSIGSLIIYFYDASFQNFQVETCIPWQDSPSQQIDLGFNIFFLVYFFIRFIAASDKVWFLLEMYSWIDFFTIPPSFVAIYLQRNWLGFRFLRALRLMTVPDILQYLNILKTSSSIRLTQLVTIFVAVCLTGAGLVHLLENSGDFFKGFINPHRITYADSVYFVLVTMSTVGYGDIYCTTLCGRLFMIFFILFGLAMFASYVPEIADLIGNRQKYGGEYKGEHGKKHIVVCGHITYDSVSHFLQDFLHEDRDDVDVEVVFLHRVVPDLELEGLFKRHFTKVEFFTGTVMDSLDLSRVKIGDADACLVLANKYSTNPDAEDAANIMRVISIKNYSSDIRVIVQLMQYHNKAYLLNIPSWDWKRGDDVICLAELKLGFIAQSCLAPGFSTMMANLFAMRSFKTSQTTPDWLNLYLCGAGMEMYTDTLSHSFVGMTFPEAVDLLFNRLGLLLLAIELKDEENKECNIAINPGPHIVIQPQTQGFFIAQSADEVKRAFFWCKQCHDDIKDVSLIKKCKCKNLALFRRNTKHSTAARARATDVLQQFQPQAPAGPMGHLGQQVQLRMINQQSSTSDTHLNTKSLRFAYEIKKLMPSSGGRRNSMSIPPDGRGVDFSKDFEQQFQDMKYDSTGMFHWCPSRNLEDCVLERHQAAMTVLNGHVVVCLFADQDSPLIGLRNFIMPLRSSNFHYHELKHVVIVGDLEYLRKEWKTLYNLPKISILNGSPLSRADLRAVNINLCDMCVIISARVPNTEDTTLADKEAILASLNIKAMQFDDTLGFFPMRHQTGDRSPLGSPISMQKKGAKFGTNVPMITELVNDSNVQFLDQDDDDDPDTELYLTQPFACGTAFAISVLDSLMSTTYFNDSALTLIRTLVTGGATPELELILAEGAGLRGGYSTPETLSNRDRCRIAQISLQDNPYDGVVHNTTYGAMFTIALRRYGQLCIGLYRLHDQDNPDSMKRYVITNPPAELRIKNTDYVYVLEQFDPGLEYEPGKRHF
Experimental for C. elegans Slo-1a: In Vitro Assay 1: C. elegans Slo-1a—Action at a Recombinant C. elegans Cell Line
Cells were cultured at 37° C. and 5% CO2 in MEMalpha with Gutamax I (Invitrogen, Nr.: 32571), supplemented with 10% (v/v) heat inactivated fetal bovine serum (Invitrogen, Nr.: 10500), G418 (1 mg/ml, Invitrogen, Nr.: 10131). Cells were detached using Accutase (Sigma, Nr.: A6964).
Membrane Potential Measurements
Laboratory compound testing was performed on 384-well microtiter plates (MTPs, Greiner, Nr.: 781092). 8000 cells/well were plated onto 384-well MTPs and cultured for 20 to 24 hours at 37° C. and 5% CO2. After removal of the cell culture medium, the cells were washed once with tyrode (150 mM NaCl, 0.3 mM KCl, 2 mM CaCl2, 1 mM MgCl2, 0.8 mM NaH2PO4, 5 mM Glucose, 28 mM Hepes, pH 7.4) and then loaded with the voltage sensitive dye of the Membrane Potential Assay Kit diluted in tyrode for 1 h at room temperature.
After starting the measurement of fluorescence using a FLIPR Tetra(Molecular Devices, Exc. 510-545 nm, Emm. 565-625 nm), test compounds were added followed by the addition of KCl tyrode (final assay concentration: 70 mM KCl, 2 mM CaCl2, 1 mM MgCl2, 0.8 mM NaH2PO4, 5 mM Glucose, 28 mM Hepes, pH 7.4, including the voltage sensitive dye). The measurement was completed after 7 minutes.

`CN(C)c1c(C(=O)N[C@H]2CCOc3ccccc32)cnc2c(C3CCCCCC3)cccc12` [Example 15, (S)—N-(Chroman-4-yl)-8-cycloheptyl-4-(dimethylamino)quinoline-3-carboxamide]: the 50% effective concentration (EC50) in assay [1] is less than 0.1 mg/L; at C. elegans Slo-1a, 0.00316 to 0.0316 µM; in assay [2], less than 0.1 mg/L.
Turning to `CN(C)c1c(C(=O)N[C@H]2CCOc3ccccc32)cnc2c(C3=CCC(C)(C)CC3)cccc12` [Example 18, (S)—N-(Chroman-4-yl)-4-(dimethylamino)-8-(4,4-dimethylcyclohex-1-en-1-yl)quinoline-3-carboxamide], the concentration giving a half-maximal response (EC50) is less than 1 mg/L in assay [1], 0.0316 to 0.316 µM on C. elegans Slo-1a and less than 10 mg/L in assay [2].
Taken in the same sequence, the figures for `CC(C)CC(C)c1cccc2c(N3CCOCC3)c(C(=O)N[C@H]3CCOc4ccccc43)cnc12` (stereo partly drawn) [Example 22, N-[(4S)-3,4-dihydro-2H-chromen-4-yl]-8-(4-methylpentan-2-yl)-4-(morpholin-4-yl)quinoline-3-carboxamide] were less than 0.1 mg/L, 0.00316 to 0.0316 µM and less than 0.1 mg/L.
On to `C[C@@H]1C[C@H](C)CN(c2cccc3c(N4CCOCC4)c(C(=O)N[C@H]4CCOc5ccccc54)cnc23)C1` [Example 33, N-[(4S)-3,4-dihydro-2H-chromen-4-yl]-8-[(3R,5S)-3,5-dimethylpiperidin-1-yl]-4-(morpholin-4-yl)quinoline-3-carboxamide], for which the values for the concentration giving a half-maximal response (EC50) (in assay [1]; on C. elegans Slo-1a; in assay [2]) were less than 0.1 mg/L, less than 0.00316 µM and less than 0.1 mg/L, respectively.
With `C[C@@H]1C[C@H](C)CN(c2cccc3c(N(C)C)c(C(=O)N[C@H]4CCOc5ccccc54)cnc23)C1` [Example 34, N-[(4S)-3,4-dihydro-2H-chromen-4-yl]-4-(dimethylamino)-8-[(3R,5S)-3,5-dimethylpiperidin-1-yl]quinoline-3-carboxamide], the EC50 in assay [1] is less than 0.1 mg/L; on C. elegans Slo-1a it was less than 0.00316 µM; in assay [2] it was less than 1 mg/L.
On to `CC(C)c1c(C(=O)N[C@H]2CCOc3ccccc32)cnc2c(N3CCCCC3)c(F)ccc12` [Example 37, N-[(4S)-3,4-dihydro-2H-chromen-4-yl]-7-fluoro-8-(piperidin-1-yl)-4-(propan-2-yl)quinoline-3-carboxamide], for which the EC50 in assay [1] was less than 0.1 mg/L; at C. elegans Slo-1a, 0.00316 to 0.0316 µM; in assay [2] it was less than 0.1 mg/L.
As for `CC(C)c1c(C(=O)N[C@H]2CCOc3ccccc32)cnc2c(N3C[C@H](C)C[C@H](C)C3)c(F)ccc12` [Example 38, N-[(4S)-3,4-dihydro-2H-chromen-4-yl]-8-[(3R,5S)-3,5-dimethylpiperidin-1-yl]-7-fluoro-4-(propan-2-yl)quinoline-3-carboxamide], the EC50 in assay [1] was less than 0.1 mg/L; at C. elegans Slo-1a, less than 0.00316 µM; in assay [2] it was less than 0.1 mg/L.
Turning to `CN(C)c1c(C(=O)N[C@H]2CCc3ccccc32)cnc2c(N3CCC(F)(F)CC3)c(F)ccc12` [Example 39, 8-(4,4-difluoropiperidin-1-yl)-N-[(1S)-2,3-dihydro-1H-inden-1-yl]-4-(dimethylamino)-7-fluoroquinoline-3-carboxamide], the results for the EC50 (on C. elegans Slo-1a; in assay [2]) were 0.00316 to 0.0316 µM and less than 1 mg/L, respectively.
For the molecule `O=C(N[C@H]1CCc2ccccc21)c1cnc2c(N3CCC(F)(F)CC3)c(F)ccc2c1N1CCOCC1` [Example 40, 8-(4,4-difluoropiperidin-1-yl)-N-[(1S)-2,3-dihydro-1H-inden-1-yl]-7-fluoro-4-(morpholin-4-yl)quinoline-3-carboxamide], the values for the concentration for a half-maximal effect (EC50) (in assay [1]; at C. elegans Slo-1a; in assay [2]) were less than 0.1 mg/L, 0.00316 to 0.0316 µM and less than 0.1 mg/L, respectively.
For the molecule `CC1CC(C)CN(c2c(F)ccc3c(N(C)C)c(C(=O)N[C@H]4CCc5ccccc54)cnc23)C1` (stereo partly drawn) [Example 41, N-[(1S)-2,3-dihydro-1H-inden-1-yl]-4-(dimethylamino)-8-(3,5-dimethylpiperidin-1-yl)-7-fluoroquinoline-3-carboxamide], the concentration giving a half-maximal response (EC50) is 0.00316 to 0.0316 µM at C. elegans Slo-1a and less than 1 mg/L in assay [2].
The corresponding values for `CN(C)c1c(C(=O)N[C@H]2CCc3ccccc32)cnc2c(N3CCCC3)c(F)ccc12` [Example 42, N-[(1S)-2,3-dihydro-1H-inden-1-yl]-4-(dimethylamino)-7-fluoro-8-(pyrrolidin-1-yl)quinoline-3-carboxamide] are 0.0316 to 0.316 µM and less than 10 mg/L.
`O=C(N[C@H]1CCc2ccccc21)c1cnc2c(N3CCCCC3)c(F)ccc2c1N1CCOCC1` [Example 43, N-[(1S)-2,3-dihydro-1H-inden-1-yl]-7-fluoro-4-(morpholin-4-yl)-8-(piperidin-1-yl)quinoline-3-carboxamide]: the concentration giving a half-maximal response (EC50) in assay [1] is less than 0.1 mg/L; at C. elegans Slo-1a, 0.00316 to 0.0316 µM; in assay [2] it was less than 0.1 mg/L.
In the case of `CN(C)c1c(C(=O)N[C@H]2CCc3ccccc32)cnc2c(N3CCCCC3)c(F)ccc12` [Example 44, N-[(1S)-2,3-dihydro-1H-inden-1-yl]-4-(dimethylamino)-7-fluoro-8-(piperidin-1-yl)quinoline-3-carboxamide], the EC50 at C. elegans Slo-1a is 0.00316 to 0.0316 µM; in assay [2] it was less than 1 mg/L.
The corresponding values for `O=C(N[C@H]1CCc2ccccc21)c1cnc2c(N3CCOCC3)c(F)ccc2c1N1CCOCC1` [Example 45, N-[(1S)-2,3-dihydro-1H-inden-1-yl]-7-fluoro-4,8-di(morpholin-4-yl)quinoline-3-carboxamide] are 0.0316 to 0.316 µM and less than 1 mg/L.
Taken in the same sequence, the figures for `CN(C)c1c(C(=O)N[C@H]2CCc3ccccc32)cnc2c(N3CCS(=O)(=O)CC3)c(F)ccc12` [Example 46, N-[(1S)-2,3-dihydro-1H-inden-1-yl]-4-(dimethylamino)-8-(1,1-dioxidothiomorpholin-4-yl)-7-fluoroquinoline-3-carboxamide] were 0.316 to 5.01 µM and less than 10 mg/L.
Taken in the same sequence, the figures for `CN(C)c1c(C(=O)N[C@H]2CCc3ccccc32)cnc2c(N3CCOCC3)c(F)ccc12` [Example 47, N-[(1S)-2,3-dihydro-1H-inden-1-yl]-4-(dimethylamino)-7-fluoro-8-(morpholin-4-yl)quinoline-3-carboxamide] were 0.316 to 5.01 µM and less than 10 mg/L.
Turning to `O=C(N[C@H]1CCc2ccccc21)c1cnc2c(N3CCCC3)c(F)ccc2c1N1CCOCC1` [Example 48, N-[(1S)-2,3-dihydro-1H-inden-1-yl]-7-fluoro-4-(morpholin-4-yl)-8-(pyrrolidin-1-yl)quinoline-3-carboxamide], the results for the EC50 (on C. elegans Slo-1a; in assay [2]) were 0.00316 to 0.0316 µM and less than 1 mg/L, respectively.
For `CC1CC(C)CN(c2c(F)ccc3c(N4CCOCC4)c(C(=O)N[C@H]4CCc5ccccc54)cnc23)C1` (stereo partly drawn) [Example 49, N-[(1S)-2,3-dihydro-1H-inden-1-yl]-8-(3,5-dimethylpiperidin-1-yl)-7-fluoro-4-(morpholin-4-yl)quinoline-3-carboxamide], the concentration giving a half-maximal response (EC50) is less than 0.1 mg/L in assay [1], less than 0.00316 µM on C. elegans Slo-1a and less than 0.1 mg/L in assay [2].
